From US11965100B2, “Aggregation-induced emission luminogens useful for cancer cell discrimination and monitoring” (The Hong Kong University of Science and Technology, priority 2020, dated 2024)

Legend:
[1] = tested on: cancer cells (A549 and HeLa) co-cultured with normal cells (COS7 and HLF); assay: CLSM imaging of cancer cells co-cultured with normal cells; type: cell-based; settings: A549 co-cultured with COS7, 2 μM, 30 min
Description: (§1) FIG. 5 CLSM images of live cancer cells (A549 and HeLa) co-cultured with normal cells (COS7 and HLF) (A), and the images of A549 and HLF cells seeded on different cover glasses (Scale bar=20 μm) (B) stained with 2 μM IVP-02 for 30 min (Scale bar=50 μm), respectively. λex=488 nm, λem=500-650 nm.
(§2) FIG. 10 CLSM images of live cancer cells (A549) co-cultured with normal cells (COS7) (A), and the images of A549 and HLF cells seeded on different cover glasses Scale bar=20 μm (B) stained with 2 μM IVP-02, 04, 06, 22, 42, and 62 for 30 min Scale bar=50 μm, respectively. (The first column in B is the same as FIG. 3B) λex=488 nm, λem=500-650 nm.
FIG. 11 CLSM images of live cancer cells (HeLa) co-cultured with normal cells (COS7), stained with 2 μM IVP-02, 04, 06, 22, 42, and 62 for 30 min, respectively. λex=488 nm, λem=500-650 nm. Scale bar=20 μm.
FIG. 12 CLSM images of live cancer cells (A549) co-cultured with normal cells (HLF), stained with 2 μM IVP-02, 04, 06, 22, 42, and 62 for 30 min, respectively. λex=488 nm, λem=500-650 nm. Scale bar=20 μm.
(§3) The bioimaging properties of IVP-02 in live cells were investigated by confocal laser scanning microscopy (CLSM). Cancer cells (A549 and HeLa) and normal cells (COS7 and HLF) were stained with IVP-02, respectively. […] So IVP-02 holds the high potential to differentiate cancer and normal cells. To verify this speculation, cancer and normal cells were co-cultured and stained with IVP-02. […] To precisely confirm the selectivity of IVP-02 to cancer cells, cancer cells A549 and normal cells HLF (A549 and HLF are both human lung cells) were seeded on different cover glasses, respectively. Then the two cover glasses were put in the same dish and stained with IVP-02 at the same time.
(§4) Cancer cells A549 co-cultured with normal cells COS7 were stained with these molecules, respectively. […] Then HeLa cells co-cultured with COS7 cells (FIG. 11), and A549 cells co-cultured with HLF cells (FIG. 12) were also stained with these molecules, the results were similar with that in A549 cells co-cultured with COS7 cells. In addition to co-culturing, A549 cells and HLF cells were also seeded on different cover glasses and stained with these molecules. […] Based on the imaging results above, it can be concluded that the selectivity of these IVP molecules to cancer cells is also based on the length of alkyl chain at pyridinium salt side. Lengthening the alkyl chain at the pyridinium salt side will eliminate the selectivity to cancer cells.

A549 and HLF cells = assay: CLSM imaging of A549 and HLF cells seeded on different cover glasses in the same dish; type: cell-based, human; settings: 2 μM, 30 min
Description: as §1, §2, §3, §4

[2] = tested on: mitochondria in HeLa and A549 cells; assay: Co-stain with mitochondrial probe MitoTracker Deep Red FM (MTDR); type: cell-based; settings: A549 and HeLa, 2 μM dye, co-stain 0.2 μM MTDR
Description: FIG. 6 CLSM images of live HeLa and A549 cells stained with 2 μM IVP-02 and 0.2 μM MTDR, respectively. IVP-02: λex=488 nm, λem=500-650 nm; MTDR: λex=640 nm, λem=650-700 nm. Scale bar=20 μm.
In the above pictures, filamentous structures in cytoplasm of cancer cells were observed, which were typical morphology of mitochondria. Then co-stain experiments with commercial mitochondrial probe MitoTracker™ Deep Red FM (MTDR) were carried out (FIG. 6).
It was speculated that the membrane permeability of the probe was a key factor for its selectivity to cancer cells, since the plasma membrane of cancer cells was reported to be more permeable than normal cells. Consequently, IVP-02 was modified by lengthening the alkyl chain at the pyridine salt side and indole side, respectively, to tune the membrane permeability. The synthetic route to these new IVP molecules is depicted in Scheme 1. Their chemical structures were fully characterized by ^1H NMR, ^13C NMR, and ^19F NMR. Then cancer cells A549 were stained with the five new molecules, respectively. […] The co-stain experiments with MTDR also confirmed their location in mitochondria in A549 cells in FIG. 7C. In addition to A549 cells, the same experiments were also carried in HeLa cells (FIGS. 8 and 9).

A549 cells = assay: Mitochondrion-nucleolus migration on CCCP treatment, A549 cells; type: cell-based, human; settings: for migration back to mitochondria after removal of CCCP: A549, CCCP removed, fresh medium 5 min; for migration from mitochondria to nucleolus after addition of CCCP: A549, pre-stained 2 μM 30 min, 20 μM CCCP 5 min
Description: FIG. 15 Live A549 cells (A) and live A549 co-cultured with COS 7 cells, live HeLa co-cultured with COS7 cells (B) were pre-stained with 2 μM IVP-02 for 30 min, and treated with 20 μM CCCP for 5 min. Then CCCP was removed away and fresh culture medium was added for another 5 min. λex=488 nm, λem=500-650 nm. Scale bar=20 μm.
FIG. 18 Live A549 cells were pre-stained with 2 μM IVP-04, 22, 42, 06, 62 for 30 min, and treated with 20 μM CCCP for 5 min. Then CCCP was removed away and fresh culture medium was added for another 5 min, respectively. λex=488 nm, λem=500-650 nm. Scale bar=20 μm.
(§5) Monitoring cell viability is a highly valuable task for the fundamental researches in biology, pathology, and medicine. Then we investigated whether IVP-02 could monitor cell viability. Δψm is a very important indicator to characterize cell viability. With the loss of cell viability, Δψm would decrease, while with the recovery of cell viability, Δψm would also recover to the normal level. […] Carbonyl cyanide m-chlorophenyl hydrazone (CCCP) is a type of protonophore and can cause rapid acidification of mitochondria by collapsing Δψm. Cancer cells A549 were pre-stained with IVP-02 for 30 min. In FIG. 15A, in the beginning, IVP-02 stained mitochondria clearly. […] Hydrogen peroxide (H2O2) can inhibit the oxidation respiratory chain that would cause the loss of cell viability. Then live A549 and HeLa cells were pre-stained with IVP-02, and treated with 10 mM H2O2.
(§6) In addition to IVP-02, we further investigated whether other IVP molecules could monitor the viability of cancer cells through mitochondrion-nucleolus migration was investigated. A549 cells were pre-stained with IVP-04, 22, 42, 06, and 62, respectively, and then CCCP was added.

HeLa cells = assay: Mitochondrion-nucleolus migration on CCCP treatment, HeLa cells; type: cell-based; settings: pre-stained 2 μM 30 min, 20 μM CCCP 5 min
Description: FIG. 16 Live HeLa cells were pre-stained with 2 μM IVP-02 for 30 min, and treated with 20 μM CCCP for 5 min. Then CCCP was removed away and fresh culture medium was added for another 5 min. λex=488 nm, λem=500-650 nm. Scale bar=20 μm.
FIG. 19 Live HeLa cells were pre-stained with 2 μM IVP-04, 22, 42, 06, 62 for 30 min, and treated with 20 μM CCCP for 5 min. Then CCCP was removed away and fresh culture medium was added for another 5 min, respectively. λex=488 nm, λem=500-650 nm. Scale bar=20 μm.
as §5, §6

RNA = RNA fluorescence titration, Scatchard equation; type: binding; settings: comparison in words
Description: FIG. 20 (A) Fluorescence titration (left) of IVP-02 with RNA and the fitted curve (right) according to Scatchard equation. (B) The binding mode of IVP-02 to RNA. (C) Binding constant (k) and binding energy (E) of IVP molecules to RNA.
FIG. 21 Fluorescence titration (left) of IVP-04, 22, 42, 06, and 62 with RNA and the fitted curve (middle) according to Scatchard equation, and the binding mode (right) of them to RNA.
Why IVP-06 and 62 cannot stain the nucleolus in cancer cells to a significant extent? On one hand, when IVP molecules located in mitochondria, in addition to the electrostatic interaction between the cation and inner membrane negative charge of mitochondria, the hydrophobic interaction between alkyl chain and phospholipids also existed. When Δψm decreased, although the electrostatic interaction weakened, the hydrophobic interaction still remained. IVP-06 and 62 have longer alkyl chain than the other four IVP molecules, so the hydrophobic interaction between IVP-06 and 62 and phospholipids is stronger than that of the other four IVP molecules. […] In FIGS. 20A and 21, with the increase of RNA concentration, the fluorescence intensity of all the molecules increases. […] In FIG. 20B and FIG. 21, IVP molecules bound to the minor grooves of RNA, and the binding energy (E) was calculated and summarized in FIG. 20C.

[3] = Quantum yield in the solid state; type: physicochemical
Description: IVPI-2 is able to stain mitochondria in healthy live cancer cells. However, when Δψm decreases, IVPI-2 migrates into nucleolus. Since IVPI-2 is target-changeable according to the change of mitochondrial physiology, the chemical structure of IVPI-2 was modified in order to enhance the mitochondria to nucleolus migration. Iodide ion is a well-known effective fluorescent quencher due to its heavy-atom effect. The quantum yield of IVP-02 in the solid state is 4.3%, which is about 3 times than that of IVPI-02 (1.3%). An Exemplary synthetic route to certain embodiments of the compounds described herein is depicted in Scheme 1.

quantum yield [3]	Structure (SMILES)	staining of co-cultured cancer and normal cells [1]	staining of A549 and HLF cells on different cover glasses (A549 and HLF cells)	mitochondrial staining in cancer cells [2]	migration back to mitochondria after removal of CCCP (A549 cells)	migration from mitochondria to nucleolus after addition of CCCP (A549 cells)	nucleolus staining after addition of CCCP (HeLa cells)	binding constant (k) to RNA (RNA)
–	CCCC[n+]1ccc(/C=C/c2c[nH]c3ccccc23)cc1 [IVP-04]	can stain both A549 and COS7 cells	could stain both A549 and HLF cells	can selectively stain mitochondria in cancer cells	could migrate back in mitochondria	could enter nucleus and stain nucleolus	could stain nucleolus	–
–	CCCCCC[n+]1ccc(/C=C/c2c[nH]c3ccccc23)cc1 [IVP-06]	can stain both A549 and COS7 cells	could stain both A549 and HLF cells	can selectively stain mitochondria in cancer cells	–	did not enter the nuclear to a substantial degree	cannot	lower than that of IVP-02, 04, 22, and 42
–	CCn1cc(/C=C/c2cc[n+](CC)cc2)c2ccccc21 [IVP-22]	only stain A549 cells	–	can selectively stain mitochondria in cancer cells	could migrate back in mitochondria	could enter nucleus and stain nucleolus	could stain nucleolus	–
–	CCCCn1cc(/C=C/c2cc[n+](CC)cc2)c2ccccc21 [IVP-42]	only stain A549 cells	–	can selectively stain mitochondria in cancer cells	could migrate back in mitochondria	could enter nucleus and stain nucleolus	could stain nucleolus	–
–	CCCCCCn1cc(/C=C/c2cc[n+](CC)cc2)c2ccccc21 [IVP-62]	only stain A549 cells	–	can selectively stain mitochondria in cancer cells	–	did not enter the nuclear to a substantial degree	cannot	lower than that of IVP-02, 04, 22, and 42
1.3%	CC[n+]1ccc(/C=C/c2c[nH]c3ccccc23)cc1.[I-] [IVPI-02, reference compound]	–	–	–	–	–	–	–
